Reference: US20210169892A1, “MODULATORS OF THE INTEGRATED STRESS PATHWAY” (Calico Life Sciences LLC, priority 2017, published 2021)

System: HEK293T cells carrying the ATF4 luciferase reporter
Assay: ATF4-Luc assay (in vitro model of vanishing white matter disease)
Format: cell-based
Conditions: Homo sapiens, HEK-293T; HEK293T cells with ATF4 luciferase reporter, 1 μg/mL tunicamycin, 7 hours, One Glo luminescence
Protocol: In order to test exemplary compounds of the invention in a cellular context, a stable VWMD cell line was first constructed. The ATF4 reporter was prepared by fusing the human full-length ATF4 5′-UTR (NCBI Accession No. BC022088.2) in front of the firefly luciferase (FLuc) coding sequence lacking the initiator methionine as described in Sidrauski et al (eLife 2013). The construct was used to produce recombinant retroviruses using standard methods and the resulting viral supernatant was used to transduce HEK293T cells, which were then subsequently selected with puromycin to generate a stable cell line.
HEK293T cells carrying the ATF4 luciferase reporter were plated on polylysine coated 384-well plates (Greiner Bio-one) at 30,000 cells per well. Cells were treated the next day with 1 μg/mL tunicamycin and 200 nM of a compound of Formula (I) for 7 hours. Luminescence was measured using One Glo (Promega) as specified by the manufacturer. Cells were maintained in DMEM with L-glutamine supplemented with 10% heat-inactivated FBS (Gibco) and Antibiotic-Antimycotic solution (Gibco).
Table 2 below summarizes the EC50 data obtained using the ATF4-Luc assay for exemplary compounds of the invention.

| SMILES | EC50 [nM] |
| --- | --- |
| O=C(COc1ccc(Cl)c(F)c1)NC12CCC(NC(=O)C3Oc4ccccc4O3)(CC1)CC2 [Compound 100, N-{4-[2-(4-chloro-3-fluorophenoxy)acetamido]bicyclo[2.2.2]octan-1-yl}-2H-1,3-benzodioxole-2-carboxamide] | > 2000 |
| O=C(COc1ccc(Cl)c(F)c1)NC12CC(NC(=O)C3CN(C(=O)CCC(F)(F)F)c4cc(Cl)ccc4O3)(C1)C2 (centres unmarked) [Compound 148, 6-chloro-N-{3-[2-(4-chloro-3-fluorophenoxy)acetamido]bicyclo[1.1.1]pentan-1-yl}-4-(4,4,4-trifluorobutanoyl)-3,4-dihydro-2H-1,4-benzoxazine-2-carboxamide] | 50 to 250 |
| O=C(COc1ccc(Cl)c(F)c1)NC12CC(NC(=O)[C@H]3COc4cc(Cl)ccc4O3)(C1)C2 [Compound 119, (2R)-6-chloro-N-{3-[2-(4-chloro-3-fluorophenoxy)acetamido]bicyclo[1.1.1]pentan-1-yl}-2,3-dihydro-1,4-benzodioxine-2-carboxamide] | < 10 |
| NS(=O)(=O)c1ccc(S(=O)(=O)N2CC(C(=O)NC34CC(NC(=O)COc5ccc(Cl)c(F)c5)(C3)C4)Oc3ccc(Cl)cc32)cc1 (centres unmarked) [Compound 174, 6-chloro-N-{3-[2-(4-chloro-3-fluorophenoxy)acetamido]bicyclo[1.1.1]pentan-1-yl}-4-(4-sulfamoylbenzene-1-sulfonyl)-3,4-dihydro-2H-1,4-benzoxazine-2-carboxamide] | 50 to 250 |
| O=C(COc1ccc(Cl)c(F)c1)NC12CC(NC(=O)[C@@H]3CCc4cc(F)ccc4O3)(C1)C2 [Compound 121, (2S)—N-{3-[2-(4-chloro-3-fluorophenoxy)acetamido]bicyclo[1.1.1]pentan-1-yl}-6-fluoro-3,4-dihydro-2H-1-benzopyran-2-carboxamide] | < 10 |
| O=C(COc1ccc(Cl)c(F)c1)NC12CC(NC(=O)C3CN(C(=O)C4CC4(F)F)c4cc(Cl)ccc4O3)(C1)C2 (centres unmarked) [Compound 176, 6-chloro-N-{3-[2-(4-chloro-3-fluorophenoxy)acetamido]bicyclo[1.1.1]pentan-1-yl}-4-(2,2-difluorocyclopropane-1-carbonyl)-3,4-dihydro-2H-1,4-benzoxazine-2-carboxamide] | 250 to 500 |
| O=C(COc1ccc(Cl)c(F)c1)NC12CC(NC(=O)C3CN(C(=O)C4(C(F)(F)F)CC4)c4cc(Cl)ccc4O3)(C1)C2 (centres unmarked) [Compound 177, 6-chloro-N-{3-[2-(4-chloro-3-fluorophenoxy)acetamido]bicyclo[1.1.1]pentan-1-yl}-4-[1-(trifluoromethyl)cyclopropane-1-carbonyl]-3,4-dihydro-2H-1,4-benzoxazine-2-carboxamide] | < 10 |
| O=C(COc1ccc(Cl)c(F)c1)NC12CC(NC(=O)C3CN(C(=O)CO)c4cc(Cl)ccc4O3)(C1)C2 (centres unmarked) [Compound 136, 6-chloro-N-{3-[2-(4-chloro-3-fluorophenoxy)acetamido]bicyclo[1.1.1]pentan-1-yl}-4-(hydroxyacetyl)-3,4-dihydro-2H-1,4-benzoxazine-2-carboxamide] | < 10 |
| CN1C[C@@H](C(=O)NC23CC(NC(=O)COc4ccc(Cl)c(F)c4)(C2)C3)Oc2ccc(Cl)cc21 (single isomer, unassigned) [Compound 104] | < 10 |
| O=C(O)CC1c2ccccc2CCN1C(=O)NC12CC(NC(=O)COc3ccc(Cl)c(F)c3)(C1)C2 (centres unmarked) [Compound 155, [2-({3-[2-(4-chloro-3-fluorophenoxy)acetamido]bicyclo[1.1.1]pentan-1-yl}carbamoyl)-1,2,3,4-tetrahydroisoquinolin-1-yl]acetic Acid] | > 2000 |
| O=C(COc1ccc(Cl)c(F)c1)NC12CCC(NC(=O)[C@@H]3CCc4cc(F)ccc4O3)(CC1)[C@@H](O)C2 [Compound 201, (2S)—N-{(2S)-4-[2-(4-chloro-3-fluorophenoxy)acetamido]-2-hydroxybicyclo[2.2.2]octan-1-yl}-6-fluoro-3,4-dihydro-2H-1-benzopyran-2-carboxamide] | < 10 |
| O=C(COc1ccc(Cl)c(F)c1)NC12CC(NC(=O)[C@H]3CCc4cc(F)ccc4O3)(C1)C2 [Compound 120, (2R)—N-{3-[2-(4-chloro-3-fluorophenoxy)acetamido]bicyclo[1.1.1]pentan-1-yl}-6-fluoro-3,4-dihydro-2H-1-benzopyran-2-carboxamide] | < 10 |
| COc1ccc(S(=O)(=O)N2CC(C(=O)NC34CC(NC(=O)COc5ccc(Cl)c(F)c5)(C3)C4)Oc3ccc(Cl)cc32)cc1 (centres unmarked) [Compound 164, 6-chloro-N-{3-[2-(4-chloro-3-fluorophenoxy)acetamido]bicyclo[1.1.1]pentan-1-yl}-4-(4-methoxybenzene-1-sulfonyl)-3,4-dihydro-2H-1,4-benzoxazine-2-carboxamide] | > 2000 |
| Cc1oncc1C(=O)N1CC(C(=O)NC23CC(NC(=O)COc4ccc(Cl)c(F)c4)(C2)C3)Oc2ccc(Cl)cc21 (centres unmarked) [Compound 153, 6-chloro-N-{3-[2-(4-chloro-3-fluorophenoxy)acetamido]bicyclo[1.1.1]pentan-1-yl}-4-(5-methyl-1,2-oxazole-4-carbonyl)-3,4-dihydro-2H-1,4-benzoxazine-2-carboxamide] | 10 to 50 |
| O=C(COc1ccc(Cl)c(F)c1)NC12CC(NC(=O)C3CNc4cc(F)c(F)cc4O3)(C1)C2 (centres unmarked) [Compound 108, N-{3-[2-(4-chloro-3-fluorophenoxy)acetamido]bicyclo[1.1.1]pentan-1-yl}-6,7-difluoro-3,4-dihydro-2H-1,4-benzoxazine-2-carboxamide] | < 10 |
| O=C(COc1ccc(Cl)c(F)c1)NC12CC(NC(=O)[C@H]3CN(C(=O)[C@H]4C[C@H]4F)c4cc(Cl)ccc4O3)(C1)C2 (single isomer, unassigned) [Compound 142] | 50 to 250 |
| O=C(COc1ccc(Cl)c(F)c1)NC12CCC(NC(=O)[C@H]3COc4ccccc4O3)(CC1)[C@@H](O)C2 [Compound 126, (2R)—N-{(2S)-4-[2-(4-chloro-3-fluorophenoxy)acetamido]-2-hydroxybicyclo[2.2.2]octan-1-yl}-2,3-dihydro-1,4-benzodioxine-2-carboxamide] | < 10 |
| O=C(COc1ccc(Cl)c(F)c1)NC12CC(NC(=O)C3CN(C(=O)C(F)(F)C(F)F)c4cc(Cl)ccc4O3)(C1)C2 (centres unmarked) [Compound 161, 6-chloro-N-{3-[2-(4-chloro-3-fluorophenoxy)acetamido]bicyclo[1.1.1]pentan-1-yl}-4-(2,2,3,3-tetrafluoropropanoyl)-3,4-dihydro-2H-1,4-benzoxazine-2-carboxamide] | < 10 |
| O=C(COc1ccc(Cl)c(F)c1)NC12CC(NC(=O)[C@H]3Cc4ccccc4N3)(C1)C2 [Compound 128, (2R)—N-{3-[2-(4-chloro-3-fluorophenoxy)acetamido]bicyclo[1.1.1]pentan-1-yl}-2,3-dihydro-1H-indole-2-carboxamide] | 50 to 250 |
| O=C(COc1ccc(Cl)c(F)c1)NC12CC(NC(=O)C3CN(CCO)c4cc(Cl)ccc4O3)(C1)C2 (centres unmarked) [Compound 135, 6-chloro-N-{3-[2-(4-chloro-3-fluorophenoxy)acetamido]bicyclo[1.1.1]pentan-1-yl}-4-(2-hydroxyethyl)-3,4-dihydro-2H-1,4-benzoxazine-2-carboxamide] | < 10 |
| Cc1cc(S(=O)(=O)N2CC(C(=O)NC34CC(NC(=O)COc5ccc(Cl)c(F)c5)(C3)C4)Oc3ccc(Cl)cc32)c(C(F)(F)F)o1 (centres unmarked) [Compound 163, 6-chloro-N-{3-[2-(4-chloro-3-fluorophenoxy)acetamido]bicyclo[1.1.1]pentan-1-yl}-4-[5-methyl-2-(trifluoromethyl)furan-3-sulfonyl]-3,4-dihydro-2H-1,4-benzoxazine-2-carboxamide] | > 2000 |
| O=C(COc1ccc(Cl)c(F)c1)NC12CC(NC(=O)C3CN(C(=O)c4ccc(OC(F)(F)F)cc4)c4cc(Cl)ccc4O3)(C1)C2 (centres unmarked) [Compound 143, 6-chloro-N-{3-[2-(4-chloro-3-fluorophenoxy)acetamido]bicyclo[1.1.1]pentan-1-yl}-4-[4-(trifluoromethoxy)benzoyl]-3,4-dihydro-2H-1,4-benzoxazine-2-carboxamide] | 500 to 2000 |
| O=C(COc1ccc(Cl)c(F)c1)NC12CC(NC(=O)C3CN(C(=O)CC(F)(F)C(F)(F)F)c4cc(Cl)ccc4O3)(C1)C2 (centres unmarked) [Compound 141, 6-chloro-N-{3-[2-(4-chloro-3-fluorophenoxy)acetamido]bicyclo[1.1.1]pentan-1-yl}-4-(3,3,4,4,4-pentafluorobutanoyl)-3,4-dihydro-2H-1,4-benzoxazine-2-carboxamide] | 10 to 50 |
| O=C(COc1ccc(Cl)c(F)c1)NC12CC(NC(=O)[C@@H]3C[C@H](O)c4cc(Cl)ccc4O3)(C1)C2 (single isomer, unassigned) [Compound 195] | < 10 |
| CS(=O)(=O)CCN1CC(C(=O)NC23CC(NC(=O)COc4ccc(Cl)c(F)c4)(C2)C3)Oc2ccc(Cl)cc21 (centres unmarked) [Compound 180, 6-chloro-N-{3-[2-(4-chloro-3-fluorophenoxy)acetamido]bicyclo[1.1.1]pentan-1-yl}-4-[2-(methanesulfonyl)ethyl]-3,4-dihydro-2H-1,4-benzoxazine-2-carboxamide] | 10 to 50 |
| CSCCC(=O)N1CC(C(=O)NC23CC(NC(=O)COc4ccc(Cl)c(F)c4)(C2)C3)Oc2ccc(Cl)cc21 (centres unmarked) [Compound 162, 6-chloro-N-{3-[2-(4-chloro-3-fluorophenoxy)acetamido]bicyclo[1.1.1]pentan-1-yl}-4-[3-(methylsulfanyl)propanoyl]-3,4-dihydro-2H-1,4-benzoxazine-2-carboxamide] | 50 to 250 |
